What was measured:
[1] = test system: pulmonary arterial hypertension (PAH); experiment: Rat model of pulmonary arterial hypertension (PAH), monocrotaline-induced; type: in vivo; conditions: 50 mg/kg by gavage, 28 days
Experimental: SCXK (SU) 2017-0001. These rats were fed with conventional pellet feeds (Jiangsu Xietong Bio. Co., Ltd.), and were raised in a clean animal room with 12h/12h light/dark cycle. The rats were fed with foods and drinking water on an ad libitum basis. The temperature was maintained at 20-26° C., and the relative humidity was 40-70%. 120 SD rats were divided into 24 cages with 5 rats per group. […] The animals were treated in strict accordance with animal ethics regulations throughout the experiment. According to the method described in “Pharmaceutical experimental animal models: Fabrication and application” and the Standard Operating Procedure for PAH Model Construction of Model Animal Center, rats were intraperitoneally injected with a solution of 1% monocrotaline (MCT, purchased from Sigma, U.S.A.) once at a dose of 35 mg/kg. On Day 7 after the first injection of MCT, MCT was injected again at a dose of 20 mg/kg. The rats in the normal control group were intraperitoneally injected with an equivalent amount of water as a blank solvent. The specific steps were as follows: After the rats in each of the cages were fasted for 8 hours, each of the rats was weighed and recorded for the basic body weight after fasting; based on the measured basic body weight for each of the rats, the amount of MCT required to be injected for each of the rats was calculated according to the modeling dose of 35 mg/kg; based on the amount of MCT required to be injected for each of the rats, the dose for injection of a 1% MCT solution was calculated; the rats were fixed in a holder and intraperitoneally injected with the 1% MCT solution at the calculated dose; the rats were returned to the cages for routine feeding after the injection. […] The blood gas analyzer was operated following the standard operation procedure. […] Each of the rats was administered by gavage once a day starting from the day of regrouping at Week 4. The rats in the negative control group were daily administered by gavage with an equal volume of methylcellulose as vehicle. The rats in each of the groups were administered by gavage for consecutive 4 weeks (i.e., 28 days). […] The rats were weighed after fasting overnight twice a week. The administration dosage was calculated based on the weighing results. […] After the rats were under anesthesia, the pulmonary arterial pressure and the right ventricular systolic pressure of rats were measured. […] The steps were as follows. A No. 3.5 umbilical vein catheter was connected to a system pressure transducer. A formulated solution of […] sodium (purchased from Sangon) was filled into the transducer and the catheter, and bubbles were discharged. The anesthetized rat was placed on a surgical anatomical plate that is adjustable in its temperature. The temperature of the plate was adjusted to be maintained at about 37° C. The rat was fixed in supine position. The neck skin was cut with scissors to the edge of the clavicle, followed by blunt dissection of subcutaneous tissues and muscles, exposing the right external jugular vein. The adipose tissue on the surface was removed with ophthalmic surgical scissors. The external jugular vein was ligated at the […] surgical thread, and a loose knot was made at the proximal end for reserve. The external jugular vein was gently lifted with ophthalmic tweezers and cut with ophthalmic scissors to make a “V” opening. The catheter was quickly inserted, and the loose knot at the proximal end was tightened slightly to prevent bleeding. […] The catheter was further inserted slowly forward, and entered into the pulmonary artery at about 5 cm. […] The blood was transferred into an anticoagulation tube, and loaded in a blood gas analyzer to determine the indexes of partial pressure of oxygen (pO2), partial pressure of carbon dioxide (pCO2) and blood oxygen saturation (SaO2) in the blood.

[2] = test system: BaF3-tel-PDGFRα (stably expressing PDGFRα kinase); experiment: Growth of BaF3-tel-PDGFRα cells, Cell Titer-Glo, 72 h; type: cell-based, mouse
Description: (§1) In this example, mouse primary B cell BaF3 (purchased from ATCC, U.S.A.) was used. In addition, in this example, mouse BaF3-tel-PDGFRα (stably expressing PDGFRα kinase), mouse BaF3-tel-PDGFRβ (stably expressing PDGFRβ kinase), BaF3-P210 (stably expressing ABL kinase), BaF3-P210-T315I (stably expressing ABL-T315I kinase), BaF3-FL-BRAF-V600E (stably expressing BRAF-V600E kinase), BaF3-TEL-cKIT (stably expressing cKIT kinase), BaF3-TEL-VEGFR2 (stably expressing VEGFR2 kinase), BaF3-TEL-FGFR2 (stably expressing FGFR2 kinase) were also used. The above-mentioned cell trains were all constructed in our laboratory by the method as follows. The sequences of human BCR-ABL (P210 or P210/T315I mutated), full-length BRAF-V600E, cKIT, VEGFR2, FGFR2, PDGFRα, PDGFRβ kinase region were amplified respectively via PCR, and inserted respectively into a MSCV-Puro vector (purchased from Clontech) having a N-terminal TEL fragment and/or NPM fragment and/or TPR fragment, and stably transferred into mouse BaF3 cells by the retroviral method, and the growth factor IL-3 was removed. Eventually, cell lines which are transferred into proteins depending on PDGFRα, PDGFRβ were obtained.
(§2) In this example, solutions of the test compound at different concentrations (0.000508 μM, 0.00152 μM, 0.00457 μM, 0.0137 μM, 0.0411 μM, 0.123 μM, 0.370 μM, 1.11 μM, 3.33 μM, 10 μM) were added to the above cells. The cells were incubated for 72 hours.

BaF3 = experiment: Growth of parental BaF3 cells, Cell Titer-Glo, 72 h; type: cell-based; conditions: Mus musculus
Description: as §1, §2

[3] = test system: BaF3-tel-PDGFRβ (stably expressing PDGFRβ kinase); experiment: Growth of BaF3-tel-PDGFRβ cells, Cell Titer-Glo, 72 h; type: cell-based, mouse
Description: as §1, §2

Row | SMILES | RVI (right ventricular hypertrophy index) decrease as compared with the negative control group [1] [%] | GI50 [2] [nM] | GI50 (BaF3) [µM] | GI50 [3] [nM]
1 | COc1ccccc1Oc1c(NS(=O)(=O)c2ccc(C(C)(C)C)cc2)nc(-c2ncccn2)nc1OCCO [bosentan, reference compound] | 15.7 |  |  | 
2 | CN1CCN(c2cncc(-c3cn(-c4cc(NC(=O)c5cccc(Cl)n5)ccc4F)nn3)c2)CC1 [Compound 28, 6-chloro-N-(4-fluoro-3-(4-(5-(4-methylpiperazin-1-yl)pyridin-3-yl)-1H-1,2,3-triazol-1-yl)phenyl)picolinamide] |  | < 10 | 3.9 | < 10
3 | CN1CCN(c2cncc(-c3cn(-c4cc(NC(=O)c5cncc(C(F)(F)F)c5)ccc4F)nn3)c2)CC1 [Compound 26, N-(4-fluoro-3-(4-(5-(4-methylpiperazin-1-yl)pyridin-3-yl)-1H-1,2,3-triazol-1-yl)phenyl)-5-(trifluoromethyl)nicotinamide] |  | < 10 | 4.74 | < 10
4 | Cc1ccc(NC(=O)c2cccc(Cl)n2)cc1-n1cc(-c2cncc(N3CC4(COC4)C3)c2)cn1 [Compound 36, N-(3-(4-(5-(2-oxa-6-aza-spiro[3.3]hept-6-yl]pyridin-3-yl)-1H-pyrazol-1-yl)-4-methylphenyl)-6-chloropicolinamide] |  | < 10 | 9.76 | < 10
5 | Cc1ccc(NC(=O)c2cc(C(F)(F)F)ccn2)cc1-n1cc(-c2cncc(N3CC4(COC4)C3)c2)nn1 [Compound 41, N-(3-(4-(5-(2-oxa-6-aza-spiro[3.3]hept-6-yl]pyridin-3-yl)-1H-1,2,3-triazol-1-yl)-4-methylphenyl)-4-(trifluoromethyl)picolinamide] |  | < 10 | 3.66 | < 10
6 | Cc1ccc(NC(=O)c2ccnc(C(F)(F)F)c2)cc1-n1cc(-c2cncc(N3CC4(COC4)C3)c2)cn1 [Compound 33, N-(3-(4-(5-(2-oxa-6-aza-spiro[3.3]hept-6-yl]pyridin-3-yl)-1H-pyrazol-1-yl)-4-methylphenyl)-2-(trifluoromethyl)isonicotinamide] |  | < 10 | 6.49 | < 10
7 | Cc1ccc(NC(=O)c2cc(C(F)(F)F)ccn2)cc1-n1cc(-c2cncc(N3CCN(C)CC3)c2)nn1 [Compound 21, N-(4-methyl-3-(4-(5-(4-methylpiperazin-1-yl)pyridin-3-yl)-1H-1,2,3-triazol-1-yl)phenyl)-4-(trifluoromethyl)picolinamide] |  | < 10 | 2.84 | < 10
8 | Cc1ccc(NC(=O)c2ccnc(C(F)(F)F)c2)cc1-n1cc(-c2cncc(N3CCN(C)CC3)c2)nn1 [Compound 19, N-(4-methyl-3-(4-(5-(4-methylpiperazin-1-yl)pyridin-3-yl)-1H-1,2,3-triazol-1-yl)phenyl)-2-(trifluoromethyl)isonicotinamide] |  | < 10 | > 10 | < 10
9 | Cc1ccc(NC(=O)c2cncc(C(F)(F)F)c2)cc1-n1cc(-c2cncc(N3CC4(COC4)C3)c2)cn1 [Compound 34, N-(3-(4-(5-(2-oxa-6-aza-spiro[3.3]hept-6-yl]pyridin-3-yl)-1H-pyrazol-1-yl)-4-methylphenyl)-5-(trifluoromethyl)nicotinamide] |  | < 10 | > 10 | < 10
10 | Cc1ccc(NC(=O)c2ccnc(C(F)(F)F)c2)cc1-n1cc(-c2cnccc2OCCN2CCOCC2)cn1 [Compound 5, N-(4-methyl-3-(4-(4-(2-morpholinoethoxy)pyridin-3-yl)-1H-pyrazol-1-yl)phenyl)-2-(trifluoromethyl)isonicotinamide] |  | < 0.3 | ~10 | < 0.3
11 | Cc1ccc(NC(=O)c2cccc(Cl)n2)cc1-n1cc(-c2cncc(N3CCN(C)CC3)c2)cn1 [Compound 17, 6-chloro-N-(4-methyl-3-(4-(5-(4-methylpiperazin-1-yl)pyridin-3-yl)-1H-pyrazol-1-yl)phenyl)picolinamide] |  | < 1.5 | 2.8 | < 1.5
12 | Cc1ccc(NC(=O)c2cccc(C(F)(F)F)n2)cc1-n1cc(-c2cncc(N3CC4(COC4)C3)c2)cn1 [Compound 32, N-(3-(4-(5-(2-oxa-6-aza-spiro[3.3]hept-6-yl]pyridin-3-yl)-1H-pyrazol-1-yl)-4-methylphenyl)-6-(trifluoromethyl)picolinamide] |  | < 10 | 9.2 | < 10
13 | CN1CCN(c2cncc(-c3cn(-c4cc(NC(=O)c5cc(C(F)(F)F)ccn5)ccc4F)nn3)c2)CC1 [Compound 27, N-(4-fluoro-3-(4-(5-(4-methylpiperazin-1-yl)pyridin-3-yl)-1H-1,2,3-triazol-1-yl)phenyl)-4-(trifluoromethyl)picolinamide] |  | < 10 | 4.73 | < 10
14 | CN1CCN(c2cncc(-c3cn(-c4cc(NC(=O)c5cccc(C(F)(F)F)n5)ccc4F)nn3)c2)CC1 [Compound 24, N-(4-fluoro-3-(4-(5-(4-methylpiperazin-1-yl)pyridin-3-yl)-1H-1,2,3-triazol-1-yl)phenyl)-6-(trifluoromethyl)picolinamide] |  | < 10 | 4.76 | < 10
15 | Cc1ccc(NC(=O)c2cccc(F)n2)cc1-n1cc(-c2cncc(N3CC4(COC4)C3)c2)cn1 [Compound 37, N-(3-(4-(5-(2-oxa-6-aza-spiro[3.3]hept-6-yl]pyridin-3-yl)-1H-pyrazol-1-yl)-4-methylphenyl)-6-fluoropicolinamide] |  | < 10 | 9.85 | < 10
16 | CN1CCN(c2cncc(-c3cn(-c4cc(NC(=O)c5ccnc(C(F)(F)F)c5)ccc4F)nn3)c2)CC1 [Compound 25, N-(4-fluoro-3-(4-(5-(4-methylpiperazin-1-yl)pyridin-3-yl)-1H-1,2,3-triazol-1-yl)phenyl)-2-(trifluoromethyl) isonicotinamide] |  | < 10 | 5.55 | < 10
17 | CN1CCN(c2cncc(-c3cn(-c4cc(NC(=O)c5cccc(F)n5)ccc4F)nn3)c2)CC1 [Compound 29, 6-fluoro-N-(4-fluoro-3-(4-(5-(4-methylpiperazin-1-yl)pyridin-3-yl)-1H-1,2,3-triazol-1-yl)phenyl)picolinamide] |  | < 10 | 2.84 | < 10

From patent publication US12310963B2, “Pyrazole derivatives and use thereof” (Tarapeutics Science Inc., priority 2019, dated 2025)
